# Reference: patent publication EP0524173B1, “SOLUBILIZATION AND PURIFICATION OF THE GASTRIN RELEASING PEPTIDE RECEPTOR” (BERLEX LABORATORIES, INC., priority 1989, dated 1991)
# Where a SMILES comes first, the peptide text is derived from it. [ ]: non-standard residue; d: D form. Nle = CCCC[C@H](N)C(=O)O
# Key:
# GRP receptor [1] = target: T1, GRP receptor (Mus musculus, UniProt P21729); assay: ^125I-GRP ligand binding assay, detergent solubilized Swiss 3T3 fibroblast membranes; conditions: for Solubilized Membranes Counts/minute Bound Measured as % of Total Added: 10 µM nucleotide added to control containing MgCl2, 0.075% CHAPS, 0.015% CHS, control 28
# T1 construct: endogenous in cells; host or cells: mouse Swiss 3T3 fibroblasts (membranes; intact or solubilized with CHAPS/CHS)
# T1 sequence (P21729 whole entry): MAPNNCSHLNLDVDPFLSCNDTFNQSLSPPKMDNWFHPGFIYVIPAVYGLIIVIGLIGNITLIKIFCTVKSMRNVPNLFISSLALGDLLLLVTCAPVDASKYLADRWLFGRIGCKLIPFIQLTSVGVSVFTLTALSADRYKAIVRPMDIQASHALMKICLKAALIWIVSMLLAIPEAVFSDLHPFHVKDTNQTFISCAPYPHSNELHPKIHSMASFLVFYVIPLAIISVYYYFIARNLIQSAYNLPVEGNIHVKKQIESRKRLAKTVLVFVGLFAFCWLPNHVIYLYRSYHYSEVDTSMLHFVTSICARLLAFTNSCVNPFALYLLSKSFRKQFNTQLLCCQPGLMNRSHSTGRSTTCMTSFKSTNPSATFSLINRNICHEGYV
# Experimental: Swiss 3T3 fibroblast membranes, prepared in Example 1, were suspended at 15 mg protein/ml in 50 mM HEPES, pH 7.5, 1.0 mM EGTA, 100 mM NaCl, 0.25 M sucrose, 50 µg/ml leupeptin, 5 µg/ml pepstatin, 10 µg/ml aprotinin, 30 µg/ml bacitracin, and 0.5 mM phenylmethylsulfonyl fluoride. A mixture of 3-[(3cholamidopropyl) dimethylammonio]-1- propane sulfonate (CHAPS) and cholesteryl hemisuccinate (CHS) in a ratio of 10:1 was added slowly to yield a final concentration of 0.75% CHAPS. The extract was incubated at 21°C for 30 minutes, cooled to 4°C and the insoluble material was removed by centrifugation at 100,000 x gravity for 60 minutes.
# For assays of detergent solubilized membrane extracts, the final CHAPS detergent concentration was adjusted to between 0.050% and 0.20%. The concentration of CHS was maintained at 1/5 to 1/10 the concentration of CHAPS. Samples were also prepared omitting the BSA. After incubation at 15°C for 30 minutes, samples were cooled to 0°C. Bound ligand (^125I-GRP:GRP receptor complex) was recovered by rapid filtration through polyethyleneimine treated Whatman GF/B filters, followed by four washes with 4 mls of ice cold Tris buffer (50 mM Tris/Cl, pH 7.5). The filters were counted in an Isodata 500 gamma counter.
# Scatchard analysis of ^125I-GRP binding to intact and solubilized Swiss 3T3 membranes was done. One particular experiment is discussed below, where the binding parameters of the solubilized and the membrane bound form of the receptor are determined under similar conditions.
# GRP receptor [2] = target: T1, GRP receptor; assay: ^125I-GRP ligand binding assay, intact Swiss 3T3 fibroblast membranes; conditions: 5 µM nucleotide added to control containing MgCl2; control 28.9
# Experimental: For assays of detergent solubilized membrane extracts, the final CHAPS detergent concentration was adjusted to between 0.050% and 0.20%. The concentration of CHS was maintained at 1/5 to 1/10 the concentration of CHAPS. Samples were also prepared omitting the BSA. After incubation at 15°C for 30 minutes, samples were cooled to 0°C. […] The filters were counted in an Isodata 500 gamma counter.
# One particular experiment is discussed below, where the binding parameters of the solubilized and the membrane bound form of the receptor are determined under similar conditions.
Compound,"time at which binding to the soluble receptor leveled off (GRP receptor [1]; 15°C, remained constant for up to 2 hours) [min]",Solubilized Membranes Counts/minute Bound Measured as % of Total Added (GRP receptor [1]) [%],Intact Membranes Counts/minute Bound Measured as % of Total Added (GRP receptor [2]) [%],IC50 (GRP receptor [1]; unlabeled competitor peptide) [nM]
3-(125Iodotyrosyl15) gastrin releasing peptide [^125I-GRP],≤ 20,,,
Nc1ncnc2c1ncn2[C@@H]1O[C@H](COP(=O)(O)OP(=O)(O)NP(=O)(O)O)[C@@H](O)[C@H]1O [AMPPNP],,27.8,33.4,
Nc1ncnc2c1ncn2[C@@H]1O[C@H](COP(=O)(O)OP(=O)(O)OP(=O)(O)O)[C@@H](O)[C@H]1O [ATP],,,29.7,
Nc1nc2c(ncn2[C@@H]2O[C@H](COP(=O)(O)OP(=O)(O)NP(=O)(O)O)[C@@H](O)[C@H]2O)c(=O)[nH]1 [GMPPNP],,26.5,10.5,
Nc1nc2c(ncn2[C@@H]2O[C@H](COP(=O)(O)OP(=O)(O)OP(=O)(O)O)[C@@H](O)[C@H]2O)c(=O)[nH]1 [GTP],,27.5,10.7,
"CCCC[C@H](NC(=O)[C@H](CC(C)C)NC(=O)[C@H](Cc1c[nH]cn1)NC(=O)CNC(=O)[C@@H](NC(=O)[C@H](C)NC(=O)[C@H](Cc1c[nH]c2ccccc12)NC(=O)[C@H](Cc1c[nH]cn1)NC(=O)[C@H](CC(N)=O)NC(=O)CNC(=O)[C@H](CCCNC(=N)N)NC(=O)[C@@H]1CCCN1C(=O)[C@H](Cc1ccc(O)cc1)NC(=O)[C@H](CCCC)NC(=O)[C@@H](N)CCCCN)C(C)C)C(N)=O [[Nle^14,27]GRP13-27] (H-K[Nle]YPRGNHWAVGHL[Nle]-NH2)",,,,0.3
